Among the data in patent US20230242496A1, “SOX11 INHIBITORS FOR TREATING MANTLE CELL LYMPHOMA” (Icahn School of Medicine At Mount Sinai, priority 2020, published 2023) are Kd, IC50 and viability values, retold here.

What is called Kd is the free concentration of one partner at which half of the binding sites on the other are occupied at equilibrium, for simple one-to-one binding. In general, IC50 refers to the concentration that inhibits the measured activity by half. A high value points to lower potency. The viability is a read-out of living cells in per cent, often relative to untreated cells.

The target of assay [1] is T1, (His)6-SOX11-DBD protein (Homo sapiens, UniProt P35716).
T1 construct: Recombinant (His)6-SOX11-DBD protein was immobilized
T1 sequence (P35716 49-117 limits assumed): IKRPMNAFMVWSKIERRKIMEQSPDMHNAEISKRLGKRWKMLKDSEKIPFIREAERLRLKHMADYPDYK
As to the kind of experiment: Surface Plasmon Resonance (SPR) assay. Conditions: immobilized recombinant (His)6-SOX11-DBD, 25° C., compounds 5-40 μM, mean of three experiments. The class given is binding. The method, then:
Surface Plasmon Resonance (SPR) Assay
Recombinant (His)6-SOX11-DBD protein was immobilized at a flow rate of 10 μl/min for 180 seconds to the right channel of a gold-coated SCR NiHC200M sensor chip (XanTec bioanalytics) placed in a Reichert 2SPR instrument (Reichert Technologies). The left channel, without immobilized protein, was used as a reference. […] Compounds flowed sequentially from the left to the right channel over the prepared sensor chip surface. 120 seconds association phase with each compound concentration was followed by 300 seconds dissociation phase with the assay buffer alone. The ka, kd, and KD values were determined from the sensograms for at least 3 concentrations of each compound by curve fitting the data using Reichert's TraceDrawer software. The mean KD value for each compound was calculated from three separate experiments.

For assay [2], the system named is Jeko-1 (SOX11+). As to the kind of experiment: Cell viability assay (CellTiter-Blue resazurin reduction). The format is cell-based. Conditions: Homo sapiens, JeKo-1, 72 h, JeKo-1 cells; for IC50: 0-40 μM; for viability at 20 µM: 20 μM compound, normalized to 0.2% DMSO. The method, then: Cell viability was determined by a fluorometric resazurin reduction method (CellTiter-Blue; Promega, Madison, Wis.) following the manufacturer's instructions. […] Cells were incubated for 72 hours. After incubation, 20 μl CellTiter-Blue Cell was added to each well and incubated for another 2 hours. […] The number of viable cells in each treated well was calculated, based on the linear least squares regression of the standard curve (OD vs. cell concentration). The viability of cells treated with compounds was normalized to the viability of cells treated with 0.2% Dimethyl sulfoxide (DMSO). Cell counts were confirmed with Trypan Blue Exclusion Assay on the Countess automated cell counter (Invitrogen) according to the manufacturer's specifications. The average and mean standard deviation were calculated from three separate experiments. IC50 values were calculated using the GraphPad Prism (version 4.00) based on a sigmoidal dose-response equation.

For the compound `O=C1COc2ccc(C(=O)Nc3ccc(S(=O)(=O)Nc4ccccc4)cc3)cc2N1`, the Kd in assay [1] amounted to 17.9 µM. Further, in assay [2], the IC50 is greater than 20 µM and the viability at 20 µM was 61.1%.
The matching figures for `Nc1cc(C(=O)Nc2ccc(S(=O)(=O)Nc3ccccc3)cc2)ccc1/C=C\C(=O)O`: 2.22 µM, 9 µM and 12.4%.
Regarding `CC(C)C1Sc2ccc(C(=O)Nc3ccc(S(=O)(=O)Nc4ccccc4)cc3)cc2NC1=O` (centres unmarked), in assay [1], the Kd turned out to be 1.18 µM. In assay [2], it took 2.5 µM to reach half-maximal inhibition (IC50) and the viability at 20 µM stood at 1.01%.
For `O=C(Nc1ccc(S(=O)(=O)Nc2ccccc2)cc1)c1ccc2c(c1)CCCS2`, in that order: 1.62 µM, 12 µM and 1.95%.
On to `O=C1Cc2ccc(C(=O)Nc3ccc(S(=O)(=O)Nc4ccccc4)cc3)cc2N1`, for which the Kd in assay [1] was 20.9 µM. In addition, in assay [2], the IC50 is greater than 20 µM and the viability at 20 µM came out at 81.5%.
For the compound `O=C(Nc1ccc(S(=O)(=O)Nc2ccccc2)cc1)c1ccc2oc(=O)[nH]c2c1`, in assay [1], the Kd was determined as 8.68 µM. Moreover, in assay [2], it took 20 µM to reach half-maximal inhibition (IC50) and the viability at 20 µM was determined as 51.8%.
For `O=C(Nc1ccc(S(=O)(=O)Nc2ccccc2)cc1)c1ccc2snnc2c1`, the Kd in assay [1] worked out at 5.65 µM. For the same compound, in assay [2], the IC50 was in the range of 5 to 10 µM and the viability at 20 µM is 34.3%.
With `O=C(Nc1ccc(S(=O)(=O)Nc2ccccc2)cc1)c1ccc2ccncc2c1`, the Kd in assay [1] came to 37.9 µM. In addition, in assay [2], half-maximal inhibition (IC50) required 5 µM and the viability at 20 µM turned out to be 24.8%.
On to `O=C(Nc1ccc(S(=O)(=O)Nc2ccccc2)cc1)c1ccc2[nH]ncc2c1`, for which the Kd in assay [1] came to 78.5 µM. In addition, in assay [2], the IC50 was 20 µM and the viability at 20 µM was 47.6%.
As to `CC1Sc2ccc(C(=O)N(c3ccccc3)S(=O)(=O)c3ccc(N)cc3)cc2NC1=O` (centres unmarked), the Kd in assay [1] worked out at 7.75 µM. In addition, in assay [2], the IC50 was greater than 20 µM and the viability at 20 µM amounted to 91.2%.
With `CC1Sc2ccc(C(=O)Nc3ccc(S(=O)(=O)Nc4cc[nH]c(=O)c4)cc3)cc2NC1=O` (centres unmarked), the Kd in assay [1] is 24.8 µM. In assay [2], 18 µM corresponded to half-maximal inhibition (IC50) and the viability at 20 µM was 34.8%.
For the compound `CC1Sc2ccc(C(=O)Nc3ccc(S(=O)(=O)NC4CCNCC4)cc3)cc2NC1=O` (centres unmarked), the equilibrium dissociation constant (Kd) in assay [1] turned out to be 100 µM. In addition, in assay [2], the IC50 is greater than 20 µM and the viability at 20 µM came out at 80.7%.
As to `CC1Sc2ccc(C(=O)Nc3ccc(S(=O)(=O)N4CCNCC4)cc3)cc2NC1=O` (centres unmarked), the Kd in assay [1] is 17.5 µM. In addition, in assay [2], the IC50 was greater than 20 µM and the viability at 20 µM was determined as 92.4%.
Turning to `CC1Sc2ccc(C(=O)Nc3ccc(S(=O)(=O)Nc4ccc(O)cc4)cc3)cc2NC1=O` (centres unmarked), in assay [1], the Kd stood at 32 µM. In assay [2], the IC50 is less than 20 µM and the viability at 20 µM turned out to be 13.7%.
For the compound `CC1Sc2ccc(C(=O)Nc3ccc(S(=O)(=O)Nc4ccc(N)cc4)cc3)cc2NC1=O` (centres unmarked), the Kd in assay [1] came out at 19.6 µM. Also, in assay [2], the IC50 was greater than 20 µM and the viability at 20 µM is 88%.
For the compound `CC1Sc2ccc(C(=O)Nc3ccc(S(=O)(=O)Nc4ccc(C(F)(F)F)cc4)cc3)cc2NC1=O` (centres unmarked), the Kd in assay [1] was 1.57 µM. Further, in assay [2], the IC50 was greater than 20 µM and the viability at 20 µM is 63.6%.
`CC1Sc2ccc(C(=O)Nc3ccc(S(=O)(=O)Nc4ccccc4)cc3)cc2N(C)C1=O` (centres unmarked): the Kd in assay [1] came to 1.95 µM. Also, in assay [2], the IC50 came to 8 µM and the viability at 20 µM was found to be 1.23%.
In the case of `CC1Sc2ccc(C(=O)Nc3ccc(S(=O)(=O)NC4CCCCC4)cc3)cc2NC1=O` (centres unmarked), the Kd in assay [1] worked out at 19 µM. In assay [2], the IC50 came out at 8 µM and the viability at 20 µM worked out at 30.4%.
For the compound `CC1Sc2ccc(C(=O)Nc3ccc(S(=O)(=O)NC4CCCC4)cc3)cc2NC1=O` (centres unmarked), in assay [1], the Kd came to 13.4 µM. Besides, in assay [2], the IC50 amounted to 15 µM and the viability at 20 µM was 36.3%.
Regarding `CC1Sc2ccc(C(=O)Nc3ccc(S(=O)(=O)Nc4ccncc4)cc3)cc2NC1=O` (centres unmarked), the Kd in assay [1] is 30.9 µM. Further, in assay [2], the IC50 was greater than 20 µM and the viability at 20 µM was 103%.
Turning to `CC1Sc2ccc(C(=O)Nc3ccc(S(=O)(=O)Nc4ccncn4)cc3)cc2NC1=O` (centres unmarked), the Kd in assay [1] amounted to 5.51 µM. Also, in assay [2], the IC50 is greater than 20 µM and the viability at 20 µM came out at 106%.
In the case of `CC1Sc2ccc(C(=O)Nc3cccc(S(=O)(=O)NC4CCCC4)c3)cc2NC1=O` (centres unmarked), the Kd in assay [1] worked out at 15.4 µM. In addition, in assay [2], inhibition was half-maximal at 16 µM (IC50) and the viability at 20 µM amounted to 38.5%.
Regarding `O=C1CSc2ccc(C(=O)Nc3cccc(S(=O)(=O)N4CCCC4)c3)cc2N1`, in assay [1], the Kd stood at 38.6 µM. Also, in assay [2], the IC50 amounted to 20 µM and the viability at 20 µM was determined as 45.4%.
For the compound `CC1Sc2ccc(C(=O)Nc3ccc(S(=O)(=O)Nc4ccccc4C(F)(F)F)cc3)cc2NC1=O` (centres unmarked), the Kd in assay [1] is 1.1 µM. In assay [2], the IC50 worked out at 10 µM and the viability at 20 µM was 8.61%.
As to `Cc1ccc(NC(=O)c2ccc3c(c2)NC(=O)CS3)cc1S(=O)(=O)Nc1cccc(Cl)c1`, the Kd in assay [1] worked out at 3.37 µM. Further, in assay [2], the IC50 worked out at 10 µM and the viability at 20 µM turned out to be 26.3%.
As to `CC1Sc2ccc(C(=O)Nc3ccccc3S(=O)(=O)Nc3ccccc3)cc2NC1=O` (centres unmarked), the Kd in assay [1] was found to be 29.2 µM. In addition, in assay [2], the IC50 is less than 20 µM and the viability at 20 µM turned out to be 14.2%.
The matching figures for `CC1Sc2ccc(C(=O)Nc3cccc(S(=O)(=O)N4CCOCC4)c3)cc2NC1=O` (centres unmarked): 85 µM, 8 µM and 30.8%.
As for `CC1Sc2ccc(C(=O)Nc3cccc(S(=O)(=O)N(C)C(C)C)c3)cc2NC1=O` (centres unmarked), the Kd in assay [1] was determined as 65.9 µM. Also, in assay [2], the IC50 is 6 µM and the viability at 20 µM was 9.64%.
On to `CC(C)NS(=O)(=O)c1cccc(NC(=O)c2ccc3c(c2)NC(=O)C(C)S3)c1` (centres unmarked), for which, in assay [1], the Kd stood at 90.9 µM. In assay [2], the IC50 is 8 µM and the viability at 20 µM was 17.6%.
In the case of `CC1Sc2ccc(C(=O)Nc3cccc(S(=O)(=O)Nc4cccc(F)c4)c3)cc2NC1=O` (centres unmarked), in assay [1], the Kd was determined as 0.629 µM. In assay [2], the IC50 worked out at 10 µM and the viability at 20 µM came to 13.1%.
Take `CC1Sc2ccc(C(=O)Nc3cccc(S(=O)(=O)Nc4ccc(Cl)cc4)c3)cc2NC1=O` (centres unmarked): the Kd in assay [1] came to 4.24 µM. In assay [2], the IC50 worked out at 11.5 µM and the viability at 20 µM was determined as 10.4%.
For `CC1Sc2ccc(C(=O)ONc3ccc(S(=O)(=O)Nc4ccccc4)nc3)cc2NC1=O` (centres unmarked), in that order: 5.07 µM, greater than 20 µM and 90%.
Turning to `CC1Sc2ccc(C(=O)Nc3ccc(S(=O)(=O)Nc4ccccc4)cc3F)cc2NC1=O` (centres unmarked), the Kd in assay [1] came out at 31 µM. In assay [2], the IC50 is greater than 20 µM and the viability at 20 µM was 90%.
The matching figures for `CC1Sc2ccc(C(=O)Nc3ccc(S(=O)(=O)Nc4ccccc4)s3)cc2NC1=O` (centres unmarked): 6.63 µM, greater than 20 µM and 57.4%.
For `CC1Sc2ccc(C(=O)Nc3ccc(C(=O)Nc4ccccc4)cc3)cc2NC1=O` (centres unmarked), in that order: 13.7 µM, greater than 20 µM and 97.5%.
The matching figures for `CC1Sc2ccc(NC(=O)c3ccc(S(=O)(=O)Nc4ccccc4)cc3)cc2NC1=O` (centres unmarked): 33.2 µM, 9 µM and 33.5%.
As to `CN1C(=O)CSc2ccc(C(=O)Nc3ccc(S(C)(=O)=O)c(Cl)c3)cc21`, the Kd in assay [1] was determined as 141 µM.
With `Cc1ccccc1N(C)S(=O)(=O)c1ccc(NC(=O)c2ccc3c(c2)CCCS3)cc1`, in assay [1], the Kd turned out to be 10.3 µM.
Take `Cc1ccc(N(C)S(=O)(=O)c2ccc(NC(=O)c3ccc4c(c3)CCCS4)cc2)cc1`: the Kd in assay [1] was found to be 2.73 µM.
As for `Cc1cccc(N(C)S(=O)(=O)c2ccc(NC(=O)c3ccc4c(c3)CCCS4)cc2)c1`, in assay [1], the Kd came out at 4.55 µM.
As for `CN(c1ccc(Cl)cc1)S(=O)(=O)c1ccc(NC(=O)c2ccc3c(c2)CCCS3)cc1`, in assay [1], the Kd stood at 10.8 µM.
Regarding `CN(c1ccccc1Cl)S(=O)(=O)c1ccc(NC(=O)c2ccc3c(c2)CCCS3)cc1`, in assay [1], the Kd is 2.39 µM.
With `CN(Cc1ccc(NC(=O)c2ccc3nn[nH]c3c2)cc1)c1ccccc1`, in assay [1], the Kd stood at 2.9 µM.
Regarding `CN(Cc1ccc(NC(=O)c2ccc3c(c2)CCCS3)cc1)c1ccccc1`, the Kd in assay [1] came out at 11.5 µM.
`CN(Cc1ccc(NC(=O)c2ccc3c(c2)N(C)C(=O)CS3)cc1)c1ccccc1`: the equilibrium dissociation constant (Kd) in assay [1] turned out to be 8.1 µM.
Regarding `CN(Cc1ccc(NC(=O)c2ccc3c(c2)NC(=O)CS3)cc1)c1ccccc1`, the Kd in assay [1] is 24.8 µM.
On the same count and under the same terms, under `O=C(Nc1ccc(CNc2ccccc2)cc1)c1ccc2oc(=O)[nH]c2c1` stands 7.91 µM; under `CN(Cc1ccc(NC(=O)c2ccc3oc(=O)[nH]c3c2)cc1)c1ccccc1`, 15.6 µM; under `O=C(Nc1ccc(S(=O)(=O)N2CCCCC2)cc1)c1ccc2c(c1)N(c1ccccc1)C(=O)CS2`, 6.67 µM.
Turning to `FC(F)(F)c1cc(OCc2ccccc2)ccc1CNc1ccc2cncnc2c1`, in assay [1], the Kd was found to be 5.28 µM.
